Experimental data from paper PMC1238745, “A Surface Groove Essential for Viral Bcl-2 Function During Chronic Infection In Vivo” (PLoS Pathogens, 2005).
Ends that are not written are not given here.

Experiments:
[1] = target: T1, γHV68 v-Bcl-2 (wild-type) (Murid herpesvirus 4, UniProt P89884); assay: NMR titration of BH3 peptides with wild-type γHV68 v-Bcl-2; type: binding, murine γ-herpesvirus 68; settings: 303 K; for binding over the concentration range of the titration: pH 7.8, peptide up to 320 μM
T1 construct: we expressed amino acids 1–137 of the v-Bcl-2, removing the carboxy-terminal hydrophobic domain; made in house; host or cells: E. coli BL21(DE3)
Experimental: (§1) Wild-type and SGR/AAA v-Bcl-2 used in NMR studies were expressed in E. coli BL21(DE3) strain grown on M9 media. For wild-type v-Bcl-2, uniformly ^15N-labeled, uniformly ^15N,^13C-labeled, and uniformly ^15N,^13C-labeled, 75% ^2H samples were prepared with media containing either ^15NH4Cl, ^15NH4Cl plus [U-^13C]glucose or ^15NH4Cl, [U-^13C]glucose, and 75% ^2H2O, respectively. For SGR/AAA v-Bcl-2, a ^15N-labeled sample was prepared with media containing ^15NH4Cl as the sole nitrogen source. Soluble protein was purified by Ni^2+-affinity chromatography. NMR samples contained 0.5–1.0 mM protein in either 90% H2O with 10% ^2H2O or 100% ^2H2O, 20 mM ^2H-TRIS (pH 7.8), and 5 mM ^2H-dithiothreitol.
(§2) All NMR experiments were acquired at 303 K on a Bruker DRX500, DRX600 or DRX800 NMR spectrometer. […] Side-chain ^1H and ^13C NMR signals were assigned from HCCH-TOCSY experiments. Stereospecific assignments of valine and leucine methyl groups were obtained from an analysis of the ^13C-^13C coupling patterns observed for biosynthetically directed, fractionally ^13C-labeled γHV68 v-Bcl-2 [87]. NOE distance restraints were obtained from three-dimensional ^15N- and ^13C-edited NOESY spectra acquired with a mixing time of 80 ms. Slowly exchanging amide protons were identified in an ^15N-HSQC spectrum recorded immediately after exchanging the protein into a buffer prepared with ^2H2O.
(§3) Binding of the Bak 16-mer ([…]), the Bax 16-mer ([…]), the Bad 25-mer ([…]), and a D83A mutant Bak 16-mer ([…]) to wild-type v-Bcl-2, and binding of the Bax 16-mer to SGR/AAA v-Bcl-2 was assessed by NMR titration. Each peptide was titrated from a concentrated stock solution into a sample of ^13C-labeled protein, and binding was monitored from changes in a ^13C methyl-HSQC spectrum. For wild-type v-Bcl-2, ^13C-HSQC spectra were recorded on a uniformly ^13C,^15N-labeled protein sample (120 μM) in the presence of increasing amounts of peptide (40, 80, 160, 240, and 320 μM). For SGR/AAA v-Bcl-2, ^15N-HSQC spectra were recorded on a sample of uniformly ^15N-labeled protein in the presence of increasing amounts of peptide.

Bcl-xL = settings: vs Bak peptide; no reference in the sentence, preceding paragraph cites ref [53]; cited from earlier work
KSHV v-Bcl-2 = settings: ref [9]; cited from earlier work
Description: Each of these proteins interacts with BH3 peptides from Bak and Bax, but the viral proteins differ from the host proteins in their inability to bind the Bad BH3 peptide. […] In this property, the γHV68 and KSHV v-Bcl-2 proteins resemble cellular Mcl-1, which also fails to bind Bad BH3 peptide and is important for development of B cells, one of the cell types in which γHV68 establishes latency. One possible explanation for the lack of binding to the Bad BH3 peptide is that v-Bcl-2 binding to Bad is detrimental to the virus. Bad was recently found to be essential for assembly of a holoenzyme tha ...

Bcl-2 and Bcl-xL = settings: Bad BH3 peptide; ref [9]; read-out: affinity; cited from earlier work
[2] = target: T2, γHV68 v-Bcl-2 (wild-type) (Murid herpesvirus 4, UniProt P89884); assay: NMR titration of BH3 peptides with wild-type γHV68 v-Bcl-2; type: binding, murine γ-herpesvirus 68; settings: changes in 13C methyl-HSQC spectrum, 120 μM 13C,15N-labeled protein, peptide 40, 80, 160, 240, and 320 μM, 20 mM 2H-TRIS pH 7.8, 5 mM 2H-dithiothreitol, 303 K
T2 construct: we expressed amino acids 1–137 of the v-Bcl-2, removing the carboxy-terminal hydrophobic domain; made in house; host or cells: E. coli BL21(DE3)
T2 sequence (P89884 whole entry, looked up): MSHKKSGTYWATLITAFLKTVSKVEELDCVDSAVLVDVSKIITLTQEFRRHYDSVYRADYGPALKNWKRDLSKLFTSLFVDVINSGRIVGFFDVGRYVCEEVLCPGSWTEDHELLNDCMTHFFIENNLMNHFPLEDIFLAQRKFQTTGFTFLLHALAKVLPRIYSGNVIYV
Experimental: as §1, §2, §3

Mcl-1 = settings: ref [70],[71]; cited from earlier work
Description: In this property, the γHV68 and KSHV v-Bcl-2 proteins resemble cellular Mcl-1, which also fails to bind Bad BH3 peptide and is important for development of B cells, one of the cell types in which γHV68 establishes latency. One possible explanation for the lack of binding to the Bad BH3 peptide is that v-Bcl-2 binding to Bad is detrimental to the virus. Bad was recently found to be essential for assembly of a holoenzyme tha ...

Row | Sequence | binding over the concentration range of the titration [1] | Kd ([1]; changes in 13C methyl-HSQC spectrum, 120 μM 13C,15N-labeled protein, peptide 40, 80, 160, 240, and 320 μM, 20 mM 2H-TRIS pH 7.8, 5 mM 2H-dithiothreitol) | fold reduction of affinity for Bcl-xL by D83A mutation (Bcl-xL) | binding to KSHV v-Bcl-2 (KSHV v-Bcl-2) | exchange with γHV68 v-Bcl-2 on the NMR timescale ([1]; pH 7.8) | Kd (Bcl-2 and Bcl-xL) | Kd [2] | binding of Bad BH3 peptide to Mcl-1 (Mcl-1)
1 | GQVGRQLAIIGADINR [D83A mutant Bak peptide] | no binding | > 300 µM | more than 120 fold | – | – | – | – | –
2 | KKLSECLKRIGDELDS [Bax peptide] | – | – | – | interacts | slow exchange | – | – | –
3 | NLWAAQRYGRELRRMSDEFVSFKK [Bad BH3 peptide, Bad 25-mer ([…]), BH3 peptide from proapoptotic Bad] | bound weakly | – | – | much lower affinity than is observed for Bcl-2 or Bcl-xL | – | 0.0006 to 0.015 µM | > 300 µM | fails to bind
